Test results from paper PMC11191095, “QSAR Reveals Decreased Lipophilicity of Polar Residues Determines the Selectivity of Antimicrobial Peptide Activity” (ACS Omega, 2024).
Where a SMILES comes first, the peptide text is derived from it.

What was measured:
[1] = RP-HPLC ElutionTime as indicator of hydrophobicity; format: physicochemical; settings: indicator of overall hydrophobicity; semipreparative RP-HPLC, Waters SymmetryPrep C8, water/ACN gradient with 0.1% TFA, 8 mL/min, 25 °C, 254 nm
Description: Crude peptides, made up to 10 mg/mL in 0.1% TFA (v/v) in ddH2O, were subjected to preparative RP-HPLC purification on an Agilent 1100 system, with elution in gradient. A gradient program at a flow rate of 8 mL/min and column temperature of 25 °C was used to achieve elution with solvent A (0.1% trifluoroacetic acid (TFA) in water (v/v)) and solvent B (0.1% TFA in 100% acetonitrile (ACN) (v/v)). The elution program was as follows: (1) At 0–73 min, 100% solvent A to 0% solvent B; (2) at 73–77 min, 40% solvent A to 60% solvent B; (3) at 77–93 min, 10% solvent A to 90% solvent B; (4) at 93–105 min, 100% solvent A to 0% solvent B. Data collected were the retention time of the major fraction for each peptide in minutes as RP-HPLC ElutionTime (ElutionTime). Absorbance was detected at 254 nm, and fractions were collected manually. The fractions collected were spun in a speed-vac to remove ACN and the contents lyophilized. After freeze-drying for 24 h the peptides were dissolved in 10% (v/v) acetic acid before being lyophilized for a second time and then stored at −20 °C.
Molecular descriptors used in the QSAR analysis included: charge, sequence length, overall lipophilicity (L), lipophilicity contributed by the polar or nonpolar residues (LP and LN), summation of the side chain surface areas of the total peptide, polar or nonpolar residues (SCSA, SCSAP, and SCSAN), the molecular weight of the entire peptide, polar or nonpolar residues (Mw, MwP, and MwN), count of small lipophilic residues (CSL) or aromatic residues (CAR), the total number of hydrogen bond donor and acceptor centers (HBtot, HBdon, and HBacc), the total number of rotatable bonds (#RotBonds) and various amphipathicity descriptors (LP/L, LP/LN, L/LN, Q/L, Q/LN, SCSAP/SCSAN, MwP/MwN, Q/CSL, and Q/CAR) (Suppl. Table S1). Experimentally determined characteristics included ElutionTime as an indicator of overall peptide hydrophobicity and the CD structure of each peptide determined in POPG/POPE lipids representing Gram-negative membranes, POPG lipids for Gram-positive membranes, and SDS micelles for fungal membranes. AMPs with an α-helical structure were labeled 4, β-sheets were labeled 3, β-turns and mixed conformations were labeled 2, and disordered structures were labeled 1.

[2] = tested on: C. tropicalis NCPF 8760; assay: microbe, parasite or virus in culture; format: cell-based
Procedure, shortened: (§1)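 Peptides 128→2 μg/mL, 2-fold series; inoculum ~5 × 10^5 CFU/mL from overnight culture (OD600 0.01, mixed 1:1). MHB non-cation-adjusted for bacteria, RPMI 1640 + 2% glucose for fungi. 37 °C, 20 h, OD600. MIC50/MIC90 at 50%/90% inhibition; n ≥ 3.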

[3] = tested on: C. krusei NCPF 3876; assay: microbe, parasite or virus in culture; format: cell-based
Procedure, shortened: as §1

[4] = tested on: C. glabrata NCPF 8018; assay: microbe, parasite or virus in culture; format: cell-based
Procedure, shortened: as §1

[5] = tested on: C. parapsilosis NCPF 3209; assay: microbe, parasite or virus in culture; format: cell-based
Procedure, shortened: as §1

[6] = tested on: C. albicans NCPF 3281; assay: microbe, parasite or virus in culture; format: cell-based
Procedure, shortened: as §1

[7] = tested on: C. auris TDG 1912; assay: microbe, parasite or virus in culture; format: cell-based, Candida auris
Procedure, shortened: as §1

[8] = tested on: S. aureus (MRSA) 1199B; assay: microbe, parasite or virus in culture; format: cell-based, Staphylococcus aureus; settings: S. aureus (MRSA) 1199B (R); shown in µM
Procedure, shortened: as §1

[9] = tested on: eight Gram-negative, four Gram-positive bacteria, and six fungi; assay: Antimicrobial screening against panel of 18 pathogens; format: cell-based; settings: 128 to 2 μg/mL, 37 °C, 20 h
Description: Antimicrobial activity was evaluated against a panel of 18 pathogens consisting of eight Gram-negative strains (E. coli NCTC 12923, E. coli LEC001, Pseudomonas aeruginosa PAO1, P. aeruginosa NCTC 13437, Acinetobacter baumannii ATCC 17978, A. baumannii AYE, Klebsiella pneumoniae M6, K. pneumoniae NCTC 13368), four Gram-positive strains (Staphylococcus aureus ATCC 9144, S. aureus NCTC 13616, S. aureus USA300, S. aureus 1199B) and six fungi (Candida auris TDG 1912, C. albicans NCPF 8018, C. krusei NCPF 3876, C. tropicalis NCPF 8760, and C. parapsilosis NCPF 3209). Pathogens were grown in noncation adjusted Mueller Hinton broth (MHB, for bacteria) or Roswell Park Memorial Institute (RPMI 1640) + 2% glucose (for fungi) at 37 °C with 180 rpm shaking and maintained on solid media (tryptic soy agar for bacteria and Sabouraud dextrose agar for fungi). For an antibiogram, see Suppl.
The 46 peptides were serially diluted (128 to 2 μg/mL) in media down polypropylene 96-well plates. […] Plates were incubated at 37 °C for 20 h, and the optical density was determined spectrophotometrically at 600 nm. Minimum inhibition concentrations (MICs) were determined from a minimum of three biological repeats and are reported in μg/mL as well as μM. […]

**Q.** Which “ElutionTime (RP-HPLC retention time of major fraction)” value [1] does the source give for `CC(C)[C@H](NC(=O)CNC(=O)[C@H](CCCNC(=N)N)NC(=O)[C@@H](N)CCCNC(=N)N)C(=O)N[C@@H](CS)C(=O)N[C@@H](CCCNC(=N)N)C(=O)N[C@@H](CS)C(=O)N[C@H](C(=O)N[C@@H](CS)C(=O)N[C@@H](CCCNC(=N)N)C(=O)N[C@@H](CCCNC(=N)N)C(N)=O)C(C)C` [BTD11a] (H-RRGVCRCVCRR-NH2; N-terminus assumed) here?
**A.** 16 min

**Q.** And the “Modal MIC50” value ([2]; C. tropicalis NCPF 8760, 50% growth inhibition, RPMI 1640 + 2% glucose, 37 °C, 20 h)?
**A.** 1 µg/mL

**Q.** What about the “Modal MIC90” value ([2]; C. tropicalis NCPF 8760, 90% growth inhibition, RPMI 1640 + 2% glucose, 37 °C, 20 h) of the same compound?
**A.** 2 µg/mL

**Q.** And the “Modal MIC50” value ([2]; NCPF 8760, 20 h)?
**A.** 0.7 µM

**Q.** And the “Modal MIC90” value ([2]; NCPF 8760, 20 h)?
**A.** 1.5 µM

**Q.** What about the “Modal MIC50” value ([3]; C. krusei NCPF 3876, 50% growth inhibition, RPMI 1640 + 2% glucose, 37 °C, 20 h) of the same compound?
**A.** 32 µg/mL

**Q.** What about the “Modal MIC90” value ([3]; C. krusei NCPF 3876, 90% growth inhibition, RPMI 1640 + 2% glucose, 37 °C, 20 h) of the same compound?
**A.** 32 µg/mL

**Q.** And the “Modal MIC50” value ([3]; NCPF 3876, 20 h)?
**A.** 23.5 µM

**Q.** What about the “Modal MIC90” value ([3]; NCPF 3876, 20 h) of the same compound?
**A.** 23.5 µM

**Q.** And the “Modal MIC50” value ([4]; C. glabrata NCPF 8018, 50% growth inhibition, RPMI 1640 + 2% glucose, 37 °C, 20 h)?
**A.** 16 µg/mL

**Q.** What about the “Modal MIC90” value ([4]; C. glabrata NCPF 8018, 90% growth inhibition, RPMI 1640 + 2% glucose, 37 °C, 20 h) of the same compound?
**A.** 32 µg/mL

**Q.** What about the “Modal MIC50” value ([4]; NCPF 8018, 20 h) of the same compound?
**A.** 11.8 µM

**Q.** And the “Modal MIC90” value ([4]; NCPF 8018, 20 h)?
**A.** 23.5 µM

**Q.** What about the “Modal MIC50” value ([5]; C. parapsilosis NCPF 3209, 50% growth inhibition, RPMI 1640 + 2% glucose, 37 °C, 20 h) of the same compound?
**A.** 4 µg/mL

**Q.** What about the “Modal MIC90” value ([5]; C. parapsilosis NCPF 3209, 90% growth inhibition, RPMI 1640 + 2% glucose, 37 °C, 20 h) of the same compound?
**A.** 16 µg/mL

**Q.** What about the “Modal MIC50” value ([5]; NCPF 3209, 20 h) of the same compound?
**A.** 2.9 µM

**Q.** What about the “Modal MIC90” value ([5]; NCPF 3209, 20 h) of the same compound?
**A.** 11.8 µM

**Q.** And the “Modal MIC50” value ([6]; C. albicans NCPF 3281, 50% growth inhibition, RPMI 1640 + 2% glucose, 37 °C, 20 h)?
**A.** 32 µg/mL

**Q.** What about the “Modal MIC90” value ([6]; C. albicans NCPF 3281, 90% growth inhibition, RPMI 1640 + 2% glucose, 37 °C, 20 h) of the same compound?
**A.** 64 µg/mL

**Q.** What about the “Modal MIC50” value ([6]; NCPF 3281, 20 h) of the same compound?
**A.** 23.5 µM

**Q.** What about the “Modal MIC90” value ([6]; NCPF 3281, 20 h) of the same compound?
**A.** 47 µM

**Q.** And the “Modal MIC50” value ([7]; C. auris TDG 1912, 50% growth inhibition, RPMI 1640 + 2% glucose, 37 °C, 20 h, OD600)?
**A.** 64 µg/mL

**Q.** What about the “Modal MIC50” value ([7]; TDG 1912, 20 h) of the same compound?
**A.** 47 µM

**Q.** What about the “Modal MIC90” value ([7]; TDG 1912, 20 h) of the same compound?
**A.** > 94 µM

**Q.** And the “Modal MIC” value [8]?
**A.** > 94 µM

**Q.** For `CC(C)[C@H](NC(=O)[C@H](CS)NC(=O)[C@@H](N)CCCNC(=N)N)C(=O)N[C@@H](CS)C(=O)N[C@H](C(=O)N[C@@H](CCCNC(=N)N)C(=O)NCC(=O)N[C@@H](Cc1ccccc1)C(=O)N[C@@H](CS)C(=O)O)[C@@H](C)O` [ThetaDefA] (H-RCVCTRGFC-OH; N-terminus and C-terminus assumed), which “antimicrobial activity in the screens” value [9] is on record?
**A.** no activity

**Q.** And the “ElutionTime (RP-HPLC retention time of major fraction)” value [1]?
**A.** 22 min

**Q.** What about the “Modal MIC50” value ([2]; NCPF 8760, 20 h) of the same compound?
**A.** > 122.6 µM

**Q.** What about the “Modal MIC90” value ([2]; NCPF 8760, 20 h) of the same compound?
**A.** > 122.6 µM

**Q.** What about the “Modal MIC50” value ([3]; NCPF 3876, 20 h) of the same compound?
**A.** > 122.6 µM

**Q.** And the “Modal MIC90” value ([3]; NCPF 3876, 20 h)?
**A.** > 122.6 µM

**Q.** What about the “Modal MIC50” value ([4]; NCPF 8018, 20 h) of the same compound?
**A.** > 122.6 µM

**Q.** What about the “Modal MIC90” value ([4]; NCPF 8018, 20 h) of the same compound?
**A.** > 122.6 µM

**Q.** What about the “Modal MIC50” value ([5]; NCPF 3209, 20 h) of the same compound?
**A.** > 122.6 µM

**Q.** And the “Modal MIC90” value ([5]; NCPF 3209, 20 h)?
**A.** > 122.6 µM

**Q.** What about the “Modal MIC50” value ([6]; NCPF 3281, 20 h) of the same compound?
**A.** > 122.6 µM

**Q.** And the “Modal MIC90” value ([6]; NCPF 3281, 20 h)?
**A.** > 122.6 µM

**Q.** Which “antimicrobial activity in the screens” value [9] does the source give for `CC(C)[C@H](NC(=O)CNC(=O)[C@H](CCCNC(=N)N)NC(=O)[C@H](CCCNC(=N)N)NC(=O)[C@H](CS)NC(=O)[C@@H](NC(=O)[C@H](CS)NC(=O)[C@@H](N)CCCNC(=N)N)C(C)C)C(=O)N[C@@H](CS)C(=O)O` [ThetaDefB] (H-RCVCRRGVC-OH; N-terminus and C-terminus assumed) here?
**A.** no activity

**Q.** And the “ElutionTime (RP-HPLC retention time of major fraction)” value [1]?
**A.** 20 min

**Q.** What about the “Modal MIC50” value ([2]; NCPF 8760, 20 h) of the same compound?
**A.** > 116.4 µM

**Q.** And the “Modal MIC90” value ([2]; NCPF 8760, 20 h)?
**A.** > 116.4 µM

**Q.** What about the “Modal MIC50” value ([3]; NCPF 3876, 20 h) of the same compound?
**A.** > 116.4 µM

**Q.** And the “Modal MIC90” value ([3]; NCPF 3876, 20 h)?
**A.** > 116.4 µM

**Q.** What about the “Modal MIC50” value ([4]; NCPF 8018, 20 h) of the same compound?
**A.** > 116.4 µM

**Q.** What about the “Modal MIC90” value ([4]; NCPF 8018, 20 h) of the same compound?
**A.** > 116.4 µM

**Q.** And the “Modal MIC50” value ([5]; NCPF 3209, 20 h)?
**A.** > 116.4 µM

**Q.** And the “Modal MIC90” value ([5]; NCPF 3209, 20 h)?
**A.** > 116.4 µM

**Q.** And the “Modal MIC50” value ([6]; NCPF 3281, 20 h)?
**A.** > 116.4 µM

**Q.** And the “Modal MIC90” value ([6]; NCPF 3281, 20 h)?
**A.** > 116.4 µM
